{"source": "patent US20210062139A1", "about": "“CELL AGGREGATION SUPPRESSOR” (KANEKA CORPORATION, priority 2017, published 2021)", "assay_type_in_all_cases": "cell-based", "key": {"[1]": {"tested_on": "human iPS cells (TkDN4-M cell line)", "test": "Cell aggregation assay: suspension (swirling) culture of human iPS cells, phase contrast microscopy", "conditions": "Day 1 of culture; for cell aggregation suppression (aggregate formation observed by microscopy): compared to only Y-27632", "description": "TkDN4-M cell lines (Institute of Medical Science, The University of Tokyo) were used as human iPS cells. Human iPS cells were seeded on cell culture dishes coated with Vitronectin (Thermo Fisher Scientific Co., Ltd.) and subjected to a maintenance culture using Essential 8™ (Thermo Fisher Scientific Co., Ltd.) as the culture medium. Accutase (Thermo Fisher Scientific Co., Ltd.) was used as a cell detachment agent during passage. In addition, when the cells were seeded, Y-27632 (Wako Pure Chemical Industries, Ltd.) at a concentration of 10 μM was added to a culture medium. The culture medium was changed every day. For experiments, human iPS cells (the number of passage was 50 or less) were used.\nThe resulting cells were suspended in Essential 8™ culture medium comprising a final concentration of 5 mg/mL of BSA (Wako Pure Chemical Industries, Ltd.) and 10 μM of Y-27632 (Wako Pure Chemical Industries, Ltd.), and a portion thereof was stained with trypan blue and the number of cells was counted. The cell suspension was prepared so as to contain 2×10^5 cells per mL. […] Then the cells were seeded at a ratio of 1.3 mL/well in a 12-well plate for suspension culture (Sumitomo Bakelite Co., Ltd.). The cell-seeded plate was subjected to a swirling culture on a rotary shaker (OPTIMA, Inc.) at a speed of 90 rpm along the horizontal plane to draw a circle with a swirling width (diameter) of 25 mm, and cells were cultured in suspension under a condition at 5% CO2 and 37° C. At the next day after the start of culture (Day 1 of culture), images were obtained by phase contrast microscopy. A control test was conducted using a cell suspension prepared under the same condition as above except that Y-27632 and TRAP-6 were not added.\n(§1) A cell suspension was prepared in the same manner as in Example 2, and separately, the cell aggregation suppressor was adjusted so that the final concentration of TRAP-6 (same as above) was 3.74 mg/mL (10 mM). Then the adjusted cell aggregation suppressor was added to the cell suspension so that the final concentration of the agonist of a thrombin receptor was 5 μM. Then the cells were seeded at a ratio of 4 mL/well in a 6-well plate for suspension culture (Sumitomo Bakelite Co., Ltd.). The cell-seeded plate was subjected to a swirling culture on a rotary shaker (OPTIMA, Inc.) at a speed of 75 rpm along the horizontal plane to draw a circle with a swirling width (diameter) of 25 mm, and cells were cultured in suspension under a condition at 5% CO2 and 37° C. After the next day of culture (Day 1 of culture), the culture medium was exchanged daily for fresh medium (Essential 8™ culture medium containing BSA (Wako Pure Chemical Industries, Ltd.) at a final concentration of 5 mg/mL), and the culture continued until Day 5 of culture. A control test was conducted using a cell suspension prepared under the same condition as described above except that TRAP-6 was not added. Images were obtained by phase contrast microscopy every day during culture. The concentration of glucose contained in the culture supernatant collected at the time of culture medium exchange was measured with biosensor BF-5iD (Prince Measuring Equipment Co., Ltd.) to calculate glucose consumption.\nCell suspensions were prepared in the same manner as in Example 2 using human iPS cells cultured with the protocol of Example 1, and instead of TRAP-6, a PAR-1 agonist (Proteinase Activated Receptor-1; PAR-1 agonist, ANASPEC, AS-62937, a C-terminal amidated peptide consisting of the amino acid sequence of TFLLRN (SEQ ID NO: 8)) was added so that a final concentration thereof was 32.8 μM or S1P (sphingosine-1-phosphate; Cayman, 62570) (positive control) was added so that the final concentration thereof was 0.8 μg/mL). Then, suspension culture and image acquisition were performed in the same manner as in Example 2."}, "[2]": {"tested_on": "human iPS cells (TkDN4-M cell line)", "test": "Glucose consumption during suspension culture of human iPS cells", "conditions": "TRAP-6 5 μM on Day 1, then TRAP-6-free medium, Day 1 to Day 5, compared to TRAP-6 non-added condition", "description": "as §1, with “A control test was conducted using a cell suspension prepared under the same condition as described above except that TRAP-6 was not added. Images were obtained by phase contrast microscopy every day during culture.” left out"}, "[3]": {"tested_on": "human iPS cells (TkDN4-M cell line)", "test": "Size distribution of cell aggregates (width of widest portion in micrograph)", "conditions": "TRAP-6 5 μM, Day 1 of culture", "description": "as §1\nFor cells cultured in suspension in the presence of TRAP-6 according to Example 3, 210 cell aggregates in an image acquired at Day 1 of culture were observed and compared using a micrograph scale, the width of the widest portion (referred to as “ϕ”) of each cell aggregate was measured, then distribution thereof was examined, and the average±standard deviation was calculated."}, "[4]": {"tested_on": "human iPS cells (TkDN4-M cell line)", "test": "Percentage of cells positive for undifferentiation markers (flow cytometry)", "conditions": "Day 5 of culture", "description": "as §1\nIn addition, at Day 5 of culture, cell aggregates were collected, dispersed with Accutase, and then suspended in Essential 8™ culture medium containing 5 mg/mL BSA. A portion of this cell suspension was stained with trypan blue and the number of cells was counted. After the above cell suspensions were centrifuged at 300 g for 3 minutes, the supernatant was then removed, and the cells were washed with PBS (phosphate buffered saline). Next, the cells were fixed with 4% paraformaldehyde (Wako Pure Chemical Industries, Ltd.) at room temperature for 20 minutes, then washed 3 times with PBS. After cells were resuspended with 300 μL of PBS, 3 mL of cold methanol was added while stirring with voltex, and permeabilized at −20° C. overnight or more. After 3 washes with 3% FBS (fetal bovine serum)/PBS, cells were resuspended with 3% FBS (fetal bovine serum)/PBS and blocked at room temperature for 30 minutes to 1 hour. Subsequently, the cells were stained with fluorescently labeled anti-SOX2 antibodies (Cat. No. 656110, BioLegend, Inc.) and fluorescently labeled anti-OCT4 antibodies (Cat. No. 653703, BioLegend, Inc.) and fluorescently labeled anti-Nanog antibodies (Cat. No. 674010, BioLegend, Inc.) at 4° C. for 30 minutes to 1 hour. […] The resulting cells were analyzed on FACSVerse. […]"}, "[5]": {"tested_on": "human iPS cells (TkDN4-M cell line)", "test": "Cell yield at Day 5 of suspension culture (trypan blue count)", "conditions": "TRAP-6 5 μM on Day 1, then TRAP-6-free medium; seeded 8×10^5 cells/well", "description": "as §1, with “After the next day of culture (Day 1 of culture), the culture medium was exchanged daily for fresh medium (Essential 8™ culture medium containing BSA (Wako Pure Chemical Industries, Ltd.) at a final concentration of 5 mg/mL), and the culture continued until Day 5 of culture. A control test was conducted using a cell suspension prepared under the same condition as described above except that TRAP-6 was not added. Images were obtained by phase contrast microscopy every day during culture.” left out\nCell yields were also measured at Day 5 of culture. […] After that, the number of cells was counted using a hemocytometer to determine the cell yield."}, "[6]": {"conditions": "TRAP-6 5 μM on Day 1, then TRAP-6-free medium"}}, "data": [{"molecule": "CCCCCCCCCCCCC/C=C/[C@@H](O)[C@@H](N)COP(=O)(O)O", "note": "[S1P, sphingosine-1-phosphate]", "values": [{"measurement": "cell aggregation suppression (aggregate formation observed by microscopy)", "setting": "[1]; S1P 0.8 μg/mL (positive control) with Y-27632 10 μM", "result": "aggregation was suppressed and smaller aggregates were formed"}]}, {"molecule": "C[C@@H](N)[C@H]1CC[C@H](C(=O)Nc2ccncc2)CC1", "note": "[Y-27632, 4-[(1R)-1-aminoethyl]-N-pyridin-4-ylcyclohexane-1-carboxamide]", "values": [{"measurement": "aggregate formation observed by microscopy", "setting": "[1]; Y-27632 10 μM alone, compared to control without Y-27632", "result": "aggregates were formed"}]}, {"molecule": "Thrombin Receptor Activator for Peptide 6 [TRAP-6]", "values": [{"measurement": "glucose consumption", "setting": "[2]", "result": "greater than that under the TRAP-6 non-added condition"}, {"measurement": "percentage of cell aggregates with size (diameter) 40 μm or more and 300 μm or less", "setting": "[3]", "result": 100, "unit": "%"}, {"measurement": "percentage of cell aggregates with size (diameter) 60 μm or more and 300 μm or less", "setting": "[3]", "result": 100, "unit": "%"}, {"measurement": "percentage of cell aggregates with size (diameter) 80 μm or more and 300 μm or less", "setting": "[3]", "result": 98.0, "unit": "%"}, {"measurement": "percentage of cell aggregates with size (diameter) 100 μm or more and 300 μm or less", "setting": "[3]", "result": 97.0, "unit": "%"}, {"measurement": "average±standard deviation of cell aggregate size (diameter)", "setting": "[3]; 210 cell aggregates", "result": "167.8±35.3", "unit": "μm"}, {"measurement": "Number of cell aggregates by size", "setting": "[3]; size range 40- μm", "result": 0}, {"measurement": "Percentage of cell aggregates by size", "setting": "[3]; size range 40- μm", "result": 0, "unit": "%"}, {"measurement": "Number of cell aggregates by size", "setting": "[3]; size range 60- μm", "result": 4}, {"measurement": "Percentage of cell aggregates by size", "setting": "[3]; size range 60- μm", "result": 2, "unit": "%"}, {"measurement": "Number of cell aggregates by size", "setting": "[3]; size range 80- μm", "result": 2}, {"measurement": "Percentage of cell aggregates by size", "setting": "[3]; size range 80- μm", "result": 1, "unit": "%"}, {"measurement": "Number of cell aggregates by size", "setting": "[3]; size range 100- μm", "result": 5}, {"measurement": "Percentage of cell aggregates by size", "setting": "[3]; size range 100- μm", "result": 2, "unit": "%"}, {"measurement": "Number of cell aggregates by size", "setting": "[3]; size range 120- μm", "result": 25}, {"measurement": "Percentage of cell aggregates by size", "setting": "[3]; size range 120- μm", "result": 12, "unit": "%"}, {"measurement": "Number of cell aggregates by size", "setting": "[3]; size range 140- μm", "result": 58}, {"measurement": "Percentage of cell aggregates by size", "setting": "[3]; size range 140- μm", "result": 28, "unit": "%"}, {"measurement": "Number of cell aggregates by size", "setting": "[3]; size range 160- μm", "result": 56}, {"measurement": "Percentage of cell aggregates by size", "setting": "[3]; size range 160- μm", "result": 27, "unit": "%"}, {"measurement": "Number of cell aggregates by size", "setting": "[3]; size range 180- μm", "result": 31}, {"measurement": "Percentage of cell aggregates by size", "setting": "[3]; size range 180- μm", "result": 15, "unit": "%"}, {"measurement": "Number of cell aggregates by size", "setting": "[3]; size range 200- μm", "result": 13}, {"measurement": "Percentage of cell aggregates by size", "setting": "[3]; size range 200- μm", "result": 6, "unit": "%"}, {"measurement": "Number of cell aggregates by size", "setting": "[3]; size range 220- μm", "result": 8}, {"measurement": "Percentage of cell aggregates by size", "setting": "[3]; size range 220- μm", "result": 4, "unit": "%"}, {"measurement": "Number of cell aggregates by size", "setting": "[3]; size range 240- μm", "result": 3}, {"measurement": "Percentage of cell aggregates by size", "setting": "[3]; size range 240- μm", "result": 1, "unit": "%"}, {"measurement": "Number of cell aggregates by size", "setting": "[3]; size range 260- μm", "result": 4}, {"measurement": "Percentage of cell aggregates by size", "setting": "[3]; size range 260- μm", "result": 2, "unit": "%"}, {"measurement": "Number of cell aggregates by size", "setting": "[3]; size range 280- μm", "result": 1}, {"measurement": "Percentage of cell aggregates by size", "setting": "[3]; size range 280- μm", "result": 0, "unit": "%"}, {"measurement": "Number of cell aggregates by size", "setting": "[3]; size range 300- μm", "result": 0}, {"measurement": "Percentage of cell aggregates by size", "setting": "[3]; size range 300- μm", "result": 0, "unit": "%"}, {"measurement": "percentage of cells positive for Nanog", "setting": "[4]; [6]", "result": "≥ 99", "unit": "%"}, {"measurement": "percentage of cells positive for OCT4", "setting": "[4]; [6]", "result": "≥ 98", "unit": "%"}, {"measurement": "percentage of cells positive for SOX2", "setting": "[4]; [6]", "result": "≥ 99", "unit": "%"}, {"measurement": "undifferentiated state of human iPS cell aggregates", "setting": "[4]; aggregates formed by addition of Y-27632 and TRAP-6 (5 μM)", "result": "remained undifferentiated"}, {"measurement": "proliferation of seeded cells (cell yield) at Day 5 of culture", "setting": "[5]", "result": 8.5, "unit": "fold"}, {"measurement": "cell aggregation suppression (aggregate formation observed by microscopy)", "setting": "[1]; TRAP-6 2 μM with Y-27632 10 μM", "result": "aggregation was suppressed and smaller aggregates were formed"}, {"measurement": "aggregate size observed by microscopy", "setting": "[1]; TRAP-6 5 μM with Y-27632 10 μM, 6-well plate, 75 rpm, compared to no TRAP-6", "result": "formation of smaller aggregates"}, {"measurement": "cell aggregation suppression (aggregate formation observed by microscopy)", "setting": "[1]; TRAP-6 10 μM with Y-27632 10 μM", "result": "aggregation was suppressed and smaller aggregates were formed"}, {"measurement": "cell aggregation suppression (aggregate formation observed by microscopy)", "setting": "[1]; TRAP-6 50 μM with Y-27632 10 μM", "result": "aggregation was suppressed and smaller aggregates were formed"}]}]}
